Key:
[1] = test system: MCF-7 breast cancer cell line; assay: Cell proliferation (CellTiter 96 AQueous MTS/PMS), MCF-7; type: cell-based; details: Homo sapiens, MCF7; MCF-7; 72 hours of incubation; concentration that induces the death of 50% of the cells; read-out: CI50 for various cell lines (nM) MCF-7
Experimental: (§1) The effects of the compounds of the invention on the proliferation of cancer cells were studied on various human cancer cell lines of various tissue origins (MCF-7: breast cancer, MCF-7/adr adriamycin-resistant breast cancer, ARH-77: myeloma, ARH-77/Dox: doxorubicin (other name for adriamycin)-resistant myeloma, HL-60: acute promyelocytic leukaemia, HL-60/R10: doxorubicin-resistant acute promyelocytic leukaemia). The cancer cells used for this study were incubated at 37° C. in the presence of one of the compounds of the invention added to the culture medium at various concentrations.
(§2) The cancer cell lines originate from the ATCC (American Type Culture Collection) in the case of MCF-7, ARH-77 and HL-60, from Pharmacell (Paris, France) for HL-60/R10, from Oncodesign (Dijon, France) for ARH-77/Dox and from the Pitié Salpetrière Hospital for MCF-7/adr. They were cultivated in a RPMI 1640 medium containing 2 mM L-glutamine and supplemented with 10% foetal calf serum. All the cell lines were maintained in culture at 37° C. in a moist atmosphere containing 5% CO2. Cell proliferation was evaluated using the “CellTiter 96® AQueous” reagent (Promega, Wis., USA) while adhering to the manufacturer's instructions. The cells were seeded in 96-well culture plates in a proportion of from 5,000 to 10,000 cells per well in 200 μl of culture medium. After 24 hours of preincubation at 37° C., the compounds of the invention dissolved in dimethyl sulphoxide (DMSO) were added individually to each of the wells in a proportion of 2 μl per well. After 72 hours of incubation at 37° C. in a moist atmosphere containing 5% CO2, 40 μL of a MTS/PMS ([3-(4,5-dimethylthiazol-2-yl)-5-(3-carboxymethoxyphenyl)-2-(4-sulphophenyl)-2H-tetrazolium phenazine methosulphate) solution were added to each well.

[2] = test system: MCF-7/adr adriamycin-resistant breast cancer cell line; assay: Cell proliferation (CellTiter 96 AQueous MTS/PMS), MCF-7/adr; type: cell-based; details: Homo sapiens, NCI/ADR-RES; MCF-7/adr; 72 hours of incubation; concentration that induces the death of 50% of the cells; read-out: CI50 for various cell lines (nM) MCF-7/adr
Experimental: as §1, §2

In the case of `CC(C)(C(=O)NCc1ccc(F)cc1)N(C(=O)CCl)c1ccc(F)cc1` [Compound 185, 2-[(2-Chloroacetyl)-(4-fluoro-phenyl)-amino]-N-(4-fluoro-benzyl)-2-methyl-propionamide], the IC50 [1] is reported as 2790 nM and the IC50 [2] is reported as 127 nM.

Work on `C#CC(=O)N(c1ccc(C(C)C)cc1)C(C(=O)NC1CCCCC1)c1cccs1` (stereo not shown) [Compound 57, Propynoic Acid (cyclohexylcarbamoylthiophen-2-yl-methyl)-(4-isopropylphenyl)amide] yielded an IC50 [1] of 599 nM and an IC50 [2] of 8.1 nM.

Work on `C#CC(=O)N(c1cccc(C(F)(F)F)c1)C(C(=O)NC1CCCCC1)c1ccccc1` (stereo not shown) [Compound 66, Propynoic Acid (cyclohexylcarbamoyl phenylmethyl)-(3-trifluoromethylphenyl)amide] yielded an IC50 [2] of 1 nM.

With `C#CC(=O)N(c1cccc(-c2ccccc2)c1)C(C(=O)NC1CCCCC1)c1cccs1` (stereo not shown) [Compound 58, Propynoic acid biphenyl-3-yl-(cyclohexylcarbamoylthiophen-2-yl-methyl)amide] the IC50 [1] was 580 nM and the IC50 [2] was 2.4 nM.

For `O=C(NC1CCCCC1)C(c1ccc(N2CCCC2)cc1)N(C(=O)CCl)c1cccc(C(F)(F)F)c1` (stereo not shown) [Compound 150], the IC50 [1] was 230 nM and the IC50 [2] was 0.6 nM.

`C#CC(=O)N(c1ccc(-c2csnn2)cc1)C(C(=O)NC1CCCCC1)c1cccs1` (stereo not shown) [Compound 28, Propynoic Acid (cyclohexylcarbamoylthiophen-2-yl-methyl)-(4-[1,2,3]thiadiazol-4-yl-phenyl)amide] showed an IC50 [1] of 70 nM and an IC50 [2] of 2.2 nM.

For `C#CC(=O)N(C(C(=O)NCc1ccccc1)c1cccs1)[C@H](C)c1ccccc1` (stereo partly drawn) [Compound 9, Propynoic Acid (benzylcarbamoylthiophen-2-yl-methyl)-((R)-1-phenylethyl)amide], the IC50 [2] was 30 nM.

Work on `C#CC(=O)N(CC(C)C)C(C(=O)NCc1ccccc1)c1cccs1` (stereo not shown) [Compound 16, Propynoic Acid (benzylcarbamoylthiophen-2-yl-methyl)isobutylamide] yielded an IC50 [2] of 1 nM.

Work on `C#CC(=O)N(c1ccc(Cl)cc1)C(C(=O)NC1CCCCC1)c1cccs1` (stereo not shown) [Compound 41, Propynoic Acid (4-chlorophenyl)(cyclohexylcarbamoylthiophen-2-yl-methyl)amide] yielded an IC50 [1] of 158 nM and an IC50 [2] of 3.2 nM.

With `C#CC(=O)N(c1ccccc1C)C(C(=O)NC1CCCCC1)c1cccs1` (stereo not shown) [Compound 60, Propynoic Acid (cyclohexylcarbamoylthiophen-2-yl-methyl)-o-tolylamide] the IC50 [1] was 357 nM and the IC50 [2] was 3.5 nM.

Molecule `C#CC(=O)N(c1cccc([N+](=O)[O-])c1)C(C(=O)NC1CCCCC1)c1cccs1` (stereo not shown) [Compound 27, Propynoic Acid (cyclohexylcarbamoylthiophen-2-yl-methyl)-(3-nitrophenyl)amide] has an IC50 [1] of 110 nM and an IC50 [2] of 0.8 nM.

`C#CC(=O)N(c1cccc(C(F)(F)F)c1)C(C(=O)NC1CCCCC1)c1ccccc1[N+](=O)[O-]` (stereo not shown) [Compound 85, Propynoic Acid [cyclohexylcarbamoyl-(2-nitrophenyl)methyl]-(3-trifluoromethylphenyl)amide] showed an IC50 [1] of 177 nM and an IC50 [2] of 1.6 nM.

`C#CC(=O)N(c1cccc(C(F)(F)F)c1)C(C(=O)NC1CCCCC1)c1ccc(C)s1` (stereo not shown) [Compound 19, Propynoic Acid [cyclohexylcarbamoyl-(5-methylthiophen-2-yl)-methyl]-(3-trifluoromethylphenyl)amide] gave an IC50 [1] of 340 nM and an IC50 [2] of 1.4 nM.

For `C#CC(=O)N(c1ccc2[nH]ncc2c1)C(C(=O)NC1CCCCC1)c1cccs1` (stereo not shown) [Compound 49, Propynoic Acid (cyclohexylcarbamoylthiophen-2-yl-methyl)-(1H-indazol-5-yl)-amide], the IC50 [1] was 220 nM and the IC50 [2] was 1 nM.

In the case of `O=C(OCc1ccccc1)N1CCN(C(=O)C(c2cccs2)N(C(=O)CCl)c2cccc(C(F)(F)F)c2)CC1` (stereo not shown) [Compound 198, 4-{2-[(2-chloro-acetyl)-(3-trifluoromethyl-phenyl)-amino]-2-thiophen-2-yl-acetyl}-piperazine-1-carboxylic acid benzyl ester], the IC50 [1] is reported as 1080 nM and the IC50 [2] is reported as 55 nM.

In the case of `C#CC(=O)N(c1cccc(C(F)(F)F)c1)C(C(=O)NC1CCCCC1)c1ccc(SC)cc1` (stereo not shown) [Compound 88, Propynoic Acid [cyclohexylcarbamoyl-(4-methylsulphanylphenyl)methyl]-(3-trifluoromethylphenyl)amide], the IC50 [1] is reported as 334 nM and the IC50 [2] is reported as 1.4 nM.

For `O=C(CN(C(=O)CCl)c1cccc(C(F)(F)F)c1)NC1CCCCC1` [Compound 130, 2-Chloro-N-cyclohexylcarbamoylmethyl-N-(3-trifluoromethylphenyl)acetamide], the IC50 [1] was 203 nM and the IC50 [2] was 34 nM.

`C#CC(=O)N(c1cccc(C(F)(F)F)c1)C(C(=O)NC1CCCCC1)c1ccc(Cl)cc1Cl` (stereo not shown) [Compound 86, Propynoic Acid [cyclohexylcarbamoyl-(2,4-dichlorophenyl)methyl]-(3-trifluoromethylphenyl)amide] showed an IC50 [1] of 216 nM and an IC50 [2] of 0.8 nM.

Work on `C#CC(=O)N(c1ccc(N(CC)CC)cc1)C(C(=O)NC1CCCCC1)c1cccs1` (stereo not shown) [Compound 32, Propynoic Acid (cyclohexylcarbamoylthiophen-2-yl-methyl)-(4-diethylaminophenyl)amide] yielded an IC50 [1] of 1260 nM and an IC50 [2] of 2.9 nM.

`C#CC(=O)N(c1cccc(C(F)(F)F)c1)C(C(=O)NC1CCCCC1)c1ccc(C#N)cc1` (stereo not shown) [Compound 81, Propynoic Acid [(4-cyanophenyl)cyclohexylcarbamoylmethyl]-(3-trifluoromethylphenyl)amide] showed an IC50 [1] of 269 nM and an IC50 [2] of 1.6 nM.

For `C#CC(=O)N(c1cccc(-c2ccnc(C)n2)c1)C(C(=O)NC1CCCCC1)c1cccs1` (stereo not shown) [Compound 38, Propynoic Acid (cyclohexylcarbamoylthiophen-2-yl-methyl)-[3-(2-methylpyrimidin-4-yl)-phenyl]amide], the IC50 [1] was 272 nM and the IC50 [2] was 1.9 nM.

`O=C(C(c1cccs1)N(C(=O)CCl)c1cccc(C(F)(F)F)c1)N1CCN(C2CCCCC2)CC1` (stereo not shown) [Compound 197] showed an IC50 [1] of 1380 nM and an IC50 [2] of 37 nM.

With `C#CC(=O)N(c1cccc(C(F)(F)F)c1)C(C(=O)NC1CCCCC1)c1ccc(C(C)C)cc1` (stereo not shown) [Compound 89, Propynoic Acid [cyclo hexylcarbamoyl-(4-isopropylphenyl)methyl]-(3-trifluoromethylphenyl)amide] the IC50 [1] was 825 nM and the IC50 [2] was 2.2 nM.

Work on `COC(=O)c1cccc(NC(=O)C(c2cccs2)N(C(=O)CCl)c2cccc(C(F)(F)F)c2)c1` (stereo not shown) [Compound 153] yielded an IC50 [1] of 79 nM and an IC50 [2] of 1.3 nM.

Work on `C#CC(=O)N(c1cccc(C(F)(F)F)c1)C(C(=O)NC1CCCCC1)c1ccc(N2CCCC2)cc1` (stereo not shown) [Compound 101, Propynoic Acid [cyclohexylcarbamoyl-(4-pyrrolidin-1-yl-phenyl)methyl]-(3-trifluoromethylphenyl)amide] yielded an IC50 [1] of 416 nM and an IC50 [2] of 1.1 nM.

Molecule `CC(C)c1cccc(N(C(=O)CCl)C(C(=O)N2CCN(C3CCCCC3)CC2)c2cccs2)c1` (stereo not shown) [Compound 199] has an IC50 [1] of 1860 nM and an IC50 [2] of 23 nM.

With `O=C(NC1CCCCC1)C(c1cccs1)N(C(=O)CCl)c1ccc2c(c1)OCO2` (stereo not shown) [Compound 135, 2-[1,3-Benzodioxol-5-yl-(2-chloroacetyl)amino]-N-cyclo hexyl-2-thiophen-2-yl-acetamide] the IC50 [1] was 285 nM and the IC50 [2] was 19 nM.

`C#CC(=O)N(c1cccc2ccccc12)C(C(=O)NC1CCCCC1)c1ccccc1` (stereo not shown) [Compound 176] gave an IC50 [2] of 1.9 nM.

`C#CC(=O)N(c1ccc(N2CCOCC2)cc1)C(C(=O)NC1CCCCC1)c1cccs1` (stereo not shown) [Compound 48, Propynoic Acid (cyclohexylcarbamoylthiophen-2-yl-methyl)-(4-morpholin-4-yl-phenyl)amide] was tested, and the IC50 [2] was 1 nM.

With `C#CC(=O)N(c1cccc(C(F)(F)F)c1)C(C(=O)NC1CCCCC1)c1ccc(N(C)C)cc1` (stereo not shown) [Compound 76, Propynoic Acid [cyclohexylcarbamoyl-(4-dimethylaminophenyl)methyl]-(3-trifluoromethylphenyl)amide] the IC50 [2] was 1.5 nM.

Work on `C#CC(=O)N(CC(C)C)C(C(=O)NC1CCCCC1)c1cccs1` (stereo not shown) [Compound 12, Propynoic Acid (cyclohexylcarbamoylthiophen-2-yl-methyl)isobutylamide] yielded an IC50 [2] of 30 nM.

For `C#CC(=O)N(C(C(=O)NCc1ccccc1)c1cccs1)[C@@H](C)c1ccccc1` (stereo partly drawn) [Compound 8, Propynoic Acid (benzylcarbamoylthiophen-2-yl-methyl)-((S)-1-phenylethyl)amide], the IC50 [2] was 30 nM.

Molecule `C#CC(=O)N(Cc1ccc2c(c1)OCO2)C(C(=O)NCc1ccccc1)c1ccccc1F` (stereo not shown) [Compound 181] has an IC50 [2] of 0.2 nM.

Work on `C#CC(=O)N(CC1CC1)C(C(=O)NCc1ccccc1)c1cccs1` (stereo not shown) [Compound 18, Propynoic Acid (benzylcarbamoylthiophen-2-yl-methyl)cyclopropylmethylamide] yielded an IC50 [2] of 30 nM.
